We go through 92 compounds from a melting point compilation (Tetko et al.; mined from patent text by program, amines drawn as free bases though some values may be those of a salt).

A value given as a limit tells only on which side of the number the result lay.

The term melting point denotes the temperature, or range, at which the solid turns liquid. The compound `Cc1cccc2c1CCCCC2=O` yielded a melting point of 54 to 55 °C.

As for `COc1ccc(OC)c(C=O)c1C`, the melting point lay within 61 to 61.5 °C.

In the case of `Cc1ccc(C(=O)NCC(N)=O)cc1-n1c(C)cc(OCc2ccccc2CNC(=O)Nc2cc(C(C)(C)C)nn2-c2ccc(O)c(Cl)c2)c(Cl)c1=O`, the melting point is 228 to 230 °C.

In the case of `CCCc1nc2c(N)nc3ccccc3c2n1CCCON=C(C)C`, the melting point lay within 147 to 150 °C.

`O=C1CCC(N2Cc3cc(CNC(=O)Nc4cc(Cl)ccc4Cl)ccc3C2=O)C(=O)N1` (configuration not stated): the melting point was in the range of 269 to 271 °C.

The compound `CCOC(=O)N1CCC(Nc2cc(OC)ccc2N)CC1` came in with a melting point of 97 to 99 °C.

As to `CN1CCC(Oc2ccc3ccc(N)nc3n2)CC1`, the melting point worked out at 174 °C.

On to `CCCCC(=O)Nc1c(C(=O)c2cccc(Cl)c2)[nH]c2cc(Cl)ccc12`, for which the melting point lay in the range of 159 to 160 °C.

`CC(C)(S)CNC(=O)CCCC(=O)O` registered a melting point of 101 to 104 °C.

With `CC(C)(C)c1cc(C(=O)c2ccc(C(=O)O)s2)cc(C(C)(C)C)c1O`, the melting point was in the range of 228 to 230 °C.

In turn, `COc1c(/C=C/C(=O)Nc2ccccc2)c(=O)c2ccc(Cl)cc2[nH]c1=O` came in with a melting point of 215 to 217 °C.

Consider `NCC1(SCc2ccccc2)C2CC3CC(C2)CC1C3` (configuration not stated), for which the melting point was 82 to 85 °C.

Consider `CC(=O)SC1NC(=O)C1Cc1ccccc1` (configuration not stated), for which the melting point was in the range of 42 to 43 °C.

For `O=C(Oc1ccc(Oc2ccccc2)cc1)N1CCC(CO)CC1`, the melting point lay within 71 to 74 °C.

On to `CCOC(=O)/C=C/c1cn(Cc2ccc(OCc3csc(-c4ccccc4)n3)cc2)nc1-c1cccs1`, for which the melting point lay within 104 to 105 °C.

The compound `[O-][N+]1=C(c2ccccc2Cl)c2nc(Cl)ccc2-n2cnnc2C1` displayed a melting point of 242 to 244 °C.

`O=C(O)Cn1c(=O)c(=O)[nH]c2cc(Br)ccc21`: the melting point was > 320 °C.

Consider `CC(CO)Oc1cc(Oc2ccc(S(C)(=O)=O)cc2)cc2cc(C3=NCC(CCO)S3)[nH]c12` (configuration not stated), for which the melting point is 165 to 169 °C.

In the case of `Cc1sc(C#N)c2c1C(=O)CC(C)(C)C2`, the melting point was in the range of 73 to 75 °C.

`Cc1c(-c2ccncc2)[nH]c(-c2ccncc2)c1C(=O)OC(C)C` returned a melting point of 218 to 221 °C.

For `CCN1C(=O)Cc2cc3occc3cc21`, the melting point lay within 112 to 113 °C.

For `COc1cccc(CC(=O)O)c1OCCCc1ccc(OC(C)C)cc1Oc1ncc(C(F)(F)F)cc1Cl`, the melting point fell in the range of 100 to 101 °C.

With `O=C(CCCCCl)c1ccc2c(c1)Cc1cc(C(=O)CCCCCl)ccc1S2`, the melting point was 85 to 86.5 °C.

For the compound `CN(O)C(=O)c1cccc2c1[nH]c1c3cc(Br)ccc3oc21`, the melting point was 174 to 175 °C.

`CCCn1c(COCC)nc2c(N)nc3cc(OC4CCN(C(=O)NC(C)C)CC4)ccc3c21`: the melting point fell in the range of 163 to 164 °C.

`O=C(Cn1nc(-c2ccccc2O)nc1-c1ccccc1O)N1CCOCC1` yielded a melting point of 149 to 151 °C.

As for `O=C1CCC(O)(c2nc3ccccc3s2)CC1`, the melting point stood at 134 °C.

With `Nc1nc2ccc(S(=O)(=O)n3c(CCCC(=O)O)cc4nc(Cl)ccc43)cc2o1`, the melting point amounted to 273 °C.

`CC1=C(C)C(F)N(c2ccc(Cl)c(Cl)c2)C1=O` (configuration not stated) came in with a melting point of 102 to 103 °C.

In the case of `Cc1ccc(-c2ccc(S(C)(=O)=O)cc2)n1-c1ccc(-c2ccoc2)cc1`, the melting point fell in the range of 200 to 202 °C.

In turn, `O=C(OCc1ccccc1)C1CCc2[nH]c3ccccc3c2C1` (configuration not stated) gave a melting point of 104 to 105 °C.

Turning to `COc1cccc2c1C(=O)c1sc(-c3ccccc3)nc1C2=O`, the melting point was > 260 °C.

Compound `COc1ccccc1C1(O)C(O)CCC2CN(Cc3ccccc3)CC21` (configuration not stated) had a melting point of 140 °C.

As for `CC1(C)CC(O)CC(C)(C)N1OC(=NC1CCCCC1)NC1CCCCC1`, the melting point is 157 to 161 °C.

In turn, `O=c1cnn(CCCCCl)c(=O)[nH]1` returned a melting point of 93 °C.

The compound `O=C(O)CCCCCc1c[nH]c2ccccc12` came in with a melting point of 124 to 126 °C.

As for `COc1cc(C(=O)NS(=O)(=O)c2ccccc2C)ccc1Cc1cn(C)c2ccc(CC(C)NC(=O)N(C)C)cc12` (configuration not stated), the melting point lay within 125 to 135 °C.

Turning to `O=[N+]([O-])c1ccc(C2SCCCS2)c(CO)c1`, the melting point was 130 to 131 °C.

On to `Cc1cc(-c2ccccc2)n2nccc2n1`, for which the melting point was 70 to 71 °C.

In turn, `CC(=O)CN1CCNC1=Nc1c(Cl)cccc1Cl` showed a melting point of 84 to 86 °C.

Consider `CCOC(=O)c1cccc(Oc2ncccc2O)c1`, for which the melting point fell in the range of 117 to 118 °C.

As to `CCOC(=O)C1(c2ccc(Cl)cc2)OCC2(CO1)c1ccccc1Oc1ccccc12`, the melting point was in the range of 131 to 132 °C.

For `CCCOc1ccc2c(c1)C(=O)C[C@H]2c1ccc2c(c1)OCO2`, the melting point lay within 63 to 65 °C.

In turn, `Nc1sc2c(c1C(=O)c1ccc(Cl)cc1)CCNC2` yielded a melting point of 164 to 166 °C.

Compound `N#CCc1ccc(NC(=O)c2ccc(C=O)cc2)cc1` displayed a melting point of 194 °C.

Take `FC(F)(F)c1ccc(-c2nccc(CBr)n2)cc1`: the melting point is 125 °C.

As for `Cc1[nH]c(=O)sc1C(=O)c1ccc(F)cc1`, the melting point fell in the range of 209 to 210 °C.

With `OC1CCSC(=S)N1Cc1ccco1` (configuration not stated), the melting point was in the range of 42 to 43 °C.

In the case of `CCOC(=O)Cc1sc(Sc2ccc(OC)nn2)nc1C`, the melting point lay within 47 to 49 °C.

For the compound `C[Si](C)(C)CCCCOC(=O)CSc1cc(Oc2ccc(C(F)(F)F)cc2Cl)ccc1[N+](=O)[O-]`, the melting point lay in the range of 78 to 81 °C.

`CN(C)CCNC(=O)C(Sc1nc2cc(Cl)ccc2s1)c1ccccc1` (configuration not stated): the melting point fell in the range of 108 to 109 °C.

For the compound `COC(=O)c1ccc2cc(OC)ccc2n1`, the melting point was found to be 129 °C.

`COc1ccc2nc(-c3cccc4ccccc34)[nH]c(=O)c2c1`: the melting point fell in the range of 174 to 175 °C.

`O=C(O)C(CCO)N1CCCC1=O` (configuration not stated) showed a melting point of 123 to 124 °C.

In turn, `Clc1cc(Cl)c(Cl)c(CBr)c1` returned a melting point of 40 to 42 °C.

`O=C(CN1CCC(OCc2ccccc2)CC1)Nc1ccc2c(c1)OCC(=O)N2` returned a melting point of 238 to 240 °C.

For the compound `O=C(O)c1c(-c2cccc(OCC3CC3)c2)c2ccccc2n1Cc1ccc(F)cc1`, the melting point fell in the range of 200 to 202 °C.

Consider `CC(=O)Nc1ccc2oc([N+](=O)[O-])c(-c3ccccc3)c2c1`, for which the melting point lay within 204 to 207 °C.

On to `COc1ccc(-n2nc(NC(=O)OC(C)(C)C)c3csc(N)c3c2=O)cc1`, for which the melting point is 99 to 101 °C.

In the case of `C[C@@H]1CN(C(=O)OC(C)(C)C)C[C@H]2Cc3cc(F)c(CO)nc3N21`, the melting point was 91 to 93 °C.

On to `Cc1cc(-n2cnnc2)ccc1N`, for which the melting point was in the range of 152 to 154 °C.

`Cc1c(Cl)c(C(F)(F)F)nn1-c1cc(OS(C)(=O)=O)c(Cl)cc1F` returned a melting point of 72 to 74.5 °C.

Take `O=S1(=O)CCON=C1c1ccc(Cl)s1`: the melting point lay in the range of 113 to 114 °C.

Turning to `Cc1ccc2[nH]c3c(N)nn(C)c3c(=O)c2c1`, the melting point is > 300 °C.

`COC(=O)c1ccc(SC)cn1` gave a melting point of 71 to 73 °C.

For `CCCCCCNC(=O)C(C)N1CCN(c2ccccn2)CC1` (configuration not stated), the melting point lay in the range of 131 to 132 °C.

As for `Nc1cccc(N2C(=O)c3ccc(N)cc3C2=O)c1`, the melting point is 228 to 231 °C.

Turning to `COc1ccc2c(n1)C1(CO2)C(=O)N(CC2CCCO2)c2cccc(Br)c21` (configuration not stated), the melting point fell in the range of 110 to 112 °C.

For `COc1ccc(C=Cc2nc3c([nH]2)c(=O)n(C)c(=O)n3C)cc1`, the melting point was > 320 °C.

The compound `CCCc1nc2c(N)nc(C)c(C)c2n1CCCCS(N)(=O)=O` showed a melting point of 167 to 169 °C.

The compound `COc1cccc2oc(Cn3nc(-c4ccc(OC(C)C)c(F)c4)c4c(N)ncnc43)c(-c3cccc(F)c3)c(=O)c12` yielded a melting point of 145 to 148 °C.

On to `COC(=O)c1c(C(F)F)nc(C(F)(F)F)c(C(=O)SC)c1NC1CC1`, for which the melting point lay within 108 to 109 °C.

`O=c1c(CCc2ccncc2)cc2cccnc2n1-c1cccc([N+](=O)[O-])c1` yielded a melting point of 213 to 214 °C.

The compound `COc1ccc(-c2ncnnc2-c2ccc(OC)cc2)cc1` had a melting point of 118 to 120 °C.

`O=C(Nc1cccc2c(NN3C(=O)CCC3=O)ccnc12)c1c(Cl)cccc1Cl` had a melting point of 170 to 173 °C.

On to `COc1ccc(C(F)(F)F)cc1NC(=O)CCl`, for which the melting point turned out to be 94.7 °C.

For `O=[N+]([O-])c1cc2nc(O)c(O)nc2c2c([N+](=O)[O-])cccc12`, the melting point was > 300 °C.

In the case of `COc1ccc(Cn2nc(C3CCN(CCc4c(C)nc5n(c4=O)CCS5)CC3)c3ccc(F)cc32)cc1`, the melting point was 146 °C.

`O=C(NCCO)c1cccc(-c2cccc3nc(Cc4cccc(C(F)(F)F)c4)sc23)c1` gave a melting point of 94 to 95 °C.

In turn, `COC(=O)[C@@H](C)Nc1ncccc1NC(=O)c1ccc(Cl)cc1` gave a melting point of 125 to 134 °C.

For the compound `CC1=C(c2ccccc2)C(=O)N(C(C)(C)C(O)C(C)C)CO1` (configuration not stated), the melting point lay in the range of 42 to 54 °C.

In turn, `c1ccc(COc2c(-c3ccccc3)n[nH]c2-c2ccccc2)cc1` returned a melting point of 152 °C.

`O=C(O)c1cn(CCc2ccc(Cl)cc2)c2cc(C3CC3)nn2c1=O` displayed a melting point of 220 to 225 °C.

Turning to `NNC(=O)c1ccc(N2CCNC2=O)cc1`, the melting point is > 200 °C.

`O=C(O)COc1ccc(SCc2ccc(-c3ccc(C(F)(F)F)cc3)cc2)c2c1CCCO2` registered a melting point of 122 to 124 °C.

`CC(C)n1nc(-c2c(NCc3cccnc3)nc(N)nc2-c2ccccc2)ccc1=O` registered a melting point of 215 to 216 °C.

Turning to `c1ccc2c(c1)CC[C@H]1O[C@@H]21`, the melting point was in the range of 47 to 48 °C.

The compound `CC(C)OC(=O)c1ccc(Nc2cccc(N3CCCCC3)c2)c([N+](=O)[O-])c1` registered a melting point of 160 to 161 °C.

`O=C(Nc1ccc(-n2nc(C3CC3)cc2C2CC2)cc1)c1cccc(F)c1F` returned a melting point of 135 to 142 °C.

In turn, `CC(=O)c1cccc2nc(SCCCN3CCCN(CC(=O)Nc4c(C(C)C)cccc4C(C)C)CC3)oc12` registered a melting point of 86 to 88 °C.

`CCCn1c(=O)c(C#N)c(Cl)c2ccccc21` displayed a melting point of 203 to 205 °C.

`COc1ccc(-c2cc(C(N)=O)c(=O)n(CC=Cc3ccc(Cl)cc3)n2)cc1` displayed a melting point of 195 to 196 °C.
